Values joined by “and” are separate entries in the source; they are usually repeats but may differ in a detail not shown here. Equal values may be shown once. Records with an inconclusive call do not appear.
Tested on: BDF1 mice, B16 melanoma s.c., survival/tumor T/C
Assay: NCI In Vivo Anticancer Drug Screen. Data for tumor model B16 Melanoma (subcutaneous) in B6D2F1 (BDF1) mice
Protocol: The antitumor activity of compounds was measured in mice bearing transplantable tumors. Survival or tumor size were measured and the results are expressed as the measurement made in the treated group (T) divided by the measurement made in the vehicle treated control group (C). The tumor model used in this assay is B16 Melanoma (subcutaneous) in B6D2F1 (BDF1) mice

SMILES: CC[C@](O)(C(=O)O)c1cc2n(c(=O)c1CO)Cc1cc3ccccc3nc1-2
- T/C (endpoint: median survival time, dose: 0.25 mg/kg/injection, schedule: Q01DX009 (ip), vehicle: saline, higher = longer survival): 102 % of control
- T/C (endpoint: median survival time, dose: 0.5 mg/kg/injection, schedule: Q01DX009 (ip), vehicle: saline, higher = longer survival): 102 % of control
- T/C (endpoint: median survival time, dose: 1.0 mg/kg/injection, schedule: Q01DX009 (ip), vehicle: Klucel (hydroxypropylcellulose) (HPC), higher = longer survival): 104 % of control
- T/C (endpoint: median survival time, dose: 2.0 mg/kg/injection, schedule: Q01DX009 (ip), vehicle: Klucel (hydroxypropylcellulose) (HPC), higher = longer survival): 104 % of control
- T/C (endpoint: median survival time, dose: 2.0 mg/kg/injection, schedule: Q01DX009 (ip), vehicle: saline, higher = longer survival): 98 % of control

SMILES: OCCN1CCN(CC/C=C2/c3ccccc3Sc3ccc(C(F)(F)F)cc32)CC1
- T/C (endpoint: median survival time, dose: 1.8 micrograms/kg/injection, schedule: Q01DX009 (ip), vehicle: saline, higher = longer survival): 93 % of control
- T/C (endpoint: median survival time, dose: 3.7 micrograms/kg/injection, schedule: Q01DX009 (ip), vehicle: saline, higher = longer survival): 95 % of control
- T/C (endpoint: median survival time, dose: 7.5 micrograms/kg/injection, schedule: Q01DX009 (ip), vehicle: saline, higher = longer survival): 109 % of control
- T/C (endpoint: median survival time, dose: 15.0 micrograms/kg/injection, schedule: Q01DX009 (ip), vehicle: saline, higher = longer survival): 103 % of control
- T/C (endpoint: median survival time, dose: 30.0 micrograms/kg/injection, schedule: Q01DX009 (ip), vehicle: saline, higher = longer survival): 91 % of control

SMILES: ClC1=NC(Cl)C(Cl)=N/C1=N\c1ncn[nH]1 (configuration not stated)
- T/C (endpoint: median survival time, dose: 4.0 mg/kg/injection, schedule: Q01DX009 (ip), vehicle: Klucel (hydroxypropylcellulose) (HPC), higher = longer survival): 106 % of control
- T/C (endpoint: median survival time, dose: 4.0 mg/kg/injection, schedule: Q01DX009 (ip), vehicle: water, higher = longer survival): 89 % of control
- T/C (endpoint: median survival time, dose: 8.0 mg/kg/injection, schedule: Q01DX009 (ip), vehicle: Klucel (hydroxypropylcellulose) (HPC), higher = longer survival): 113 % of control
- T/C (endpoint: median survival time, dose: 16.0 mg/kg/injection, schedule: Q01DX009 (ip), vehicle: Klucel (hydroxypropylcellulose) (HPC), higher = longer survival): 101 % of control
- T/C (endpoint: median survival time, dose: 16.0 mg/kg/injection, schedule: Q01DX009 (ip), vehicle: water, higher = longer survival): 170 % of control
- T/C (endpoint: median survival time, dose: 32.0 mg/kg/injection, schedule: Q01DX009 (ip), vehicle: water, higher = longer survival): 121 % of control

SMILES: COc1cccc2c1C(=O)c1c(O)c3c(c(O)c1C2=O)C[C@@](O)(C(C)=O)C[C@@H]3OC1CC(N)C(O)C(C)O1 (some centres not stated)
- T/C (endpoint: median survival time, dose: 0.12 mg/kg/injection, schedule: Q01DX009 (ip), vehicle: saline, higher = longer survival): 87 % of control and 105 % of control
- T/C (endpoint: median tumor weight (est.), dose: 0.12 mg/kg/injection, schedule: Q01DX009 (ip), vehicle: saline, higher = larger tumour): 64 % of control
- T/C (endpoint: median tumor weight (est.), dose: 0.25 mg/kg/injection, schedule: Q01DX009 (ip), vehicle: saline, higher = larger tumour): 86 % of control and 100 % of control
- T/C (endpoint: median tumor weight (est.), dose: 0.5 mg/kg/injection, schedule: Q01DX009 (ip), vehicle: saline, higher = larger tumour): 55 % of control

SMILES: Cc1cc(NC(=O)NCc2ccc(N3C(N)=NC(N)=NC3(C)C)cc2)ccc1S(=O)(=O)F
- T/C (endpoint: median survival time, dose: 50.0 mg/kg/injection, schedule: Q04DX003 (ip), vehicle: saline, higher = longer survival): 106 % of control
- T/C (endpoint: median survival time, dose: 100.0 mg/kg/injection, schedule: Q04DX003 (ip), vehicle: saline, higher = longer survival): 95 % of control

SMILES: C/C=C(\C)C(=O)O[C@@H]1c2cc3c(cc2-c2c(cc(OC)c(OC)c2OC)[C@@H]2C(=O)OC[C@@H]12)OCO3
- T/C (endpoint: median survival time, dose: 1.25 mg/kg/injection, schedule: Q01DX009 (ip), vehicle: Klucel (hydroxypropylcellulose) (HPC), higher = longer survival): 109 % of control
- T/C (endpoint: median survival time, dose: 2.5 mg/kg/injection, schedule: Q01DX009 (ip), vehicle: Klucel (hydroxypropylcellulose) (HPC), higher = longer survival): 101 % of control
- T/C (endpoint: median survival time, dose: 5.0 mg/kg/injection, schedule: Q01DX009 (ip), vehicle: Klucel (hydroxypropylcellulose) (HPC), higher = longer survival): 109 % of control
- T/C (endpoint: median survival time, dose: 10.0 mg/kg/injection, schedule: Q01DX009 (ip), vehicle: Klucel (hydroxypropylcellulose) (HPC), higher = longer survival): 101 % of control

SMILES: O=P(OCC(Br)CBr)(OCC(Br)CBr)OCC(Br)CBr (configuration not stated)
- T/C (endpoint: median survival time, dose: 50.0 mg/kg/injection, schedule: Q01DX009 (ip), vehicle: saline with Tween-80, higher = longer survival): 110 % of control
- T/C (endpoint: median survival time, dose: 100.0 mg/kg/injection, schedule: Q01DX009 (ip), vehicle: saline with Tween-80, higher = longer survival): 114 % of control
- T/C (endpoint: median survival time, dose: 200.0 mg/kg/injection, schedule: Q01DX009 (ip), vehicle: saline with Tween-80, higher = longer survival): 98 % of control
- T/C (endpoint: median survival time, dose: 400.0 mg/kg/injection, schedule: Q01DX009 (ip), vehicle: saline with Tween-80, higher = longer survival): 105 % of control

SMILES: COC1=C2C[C@@H](C)C[C@@H](OC)[C@@H](O)[C@H](C)/C=C(\C)[C@@H](OC(N)=O)[C@H](OC)/C=C\C=C(/C)C(=O)NC(=CC1=O)C2=O
- T/C (endpoint: median survival time, dose: 0.5 mg/kg/injection, schedule: Q01DX005 (ip), vehicle: water, higher = longer survival): 118 % of control
- T/C (endpoint: median survival time, dose: 1.0 mg/kg/injection, schedule: Q01DX005 (ip), vehicle: water, higher = longer survival): 105 % of control

From PubChem BioAssay AID194 (DTP/NCI, 2004)
